Measured values published in the NIST ThermoML archive (doi:10.1021/je100552a).

How the values were obtained:
[1] = xn = mol fraction of the nth substance listed; conditions: 101 kPa, Liquid; for viscosity: Capillary tube (Ostwald / Ubbelohde) method
[2] = refractive index (Na D-line) (dimensionless); xn = mol fraction of the nth substance listed; conditions: 101 kPa, Liquid, Standard Abbe refractometry

Brc1ccccc1 [bromobenzene] + ClCCCl
Conditions	refractive index, 298.15 K	refractive index, 303.15 K	refractive index, 308.15 K	refractive index, 313.15 K	viscosity, 298.15 K [mPa·s]	viscosity, 303.15 K [mPa·s]	viscosity, 308.15 K [mPa·s]	viscosity, 313.15 K [mPa·s]
[1], x2 = 0.1014	–	–	–	–	1.041	0.9749	0.9162	0.8463
[1], x2 = 0.2002	–	–	–	–	1.004	0.9388	0.8809	0.8155
[1], x2 = 0.3004	–	–	–	–	0.9677	0.904	0.8474	0.787
[1], x2 = 0.3999	–	–	–	–	0.9348	0.8714	0.815	0.7607
[1], x2 = 0.5008	–	–	–	–	0.9036	0.8409	0.7839	0.7355
[1], x2 = 0.6001	–	–	–	–	0.8752	0.8141	0.7583	0.712
[1], x2 = 0.6999	–	–	–	–	0.8496	0.7886	0.7321	0.6917
[1], x2 = 0.7995	–	–	–	–	0.8268	0.7646	0.711	0.6728
[1], x2 = 0.8998	–	–	–	–	0.8058	0.7445	0.6904	0.6569
[2], x2 = 0.1014	1.5479	1.5439	1.5412	1.5372	–	–	–	–
[2], x2 = 0.2002	1.5398	1.5355	1.5321	1.5279	–	–	–	–
[2], x2 = 0.3004	1.5313	1.5266	1.5227	1.5182	–	–	–	–
[2], x2 = 0.3999	1.5218	1.517	1.5128	1.5079	–	–	–	–
[2], x2 = 0.5008	1.5107	1.506	1.5015	1.4967	–	–	–	–
[2], x2 = 0.6001	1.4984	1.494	1.4893	1.4849	–	–	–	–
[2], x2 = 0.6999	1.4847	1.4808	1.4761	1.4722	–	–	–	–
[2], x2 = 0.7995	1.4704	1.4671	1.4622	1.459	–	–	–	–
[2], x2 = 0.8998	1.4559	1.4528	1.4479	1.4452	–	–	–	–

mass density [kg/m3], [1], Vibrating tube method
Conditions	x2 = 0.1014	x2 = 0.2002	x2 = 0.3004	x2 = 0.3999	x2 = 0.5008	x2 = 0.6001	x2 = 0.6999	x2 = 0.7995	x2 = 0.8998
298.15 K	1469.57	1449.41	1428.09	1406.01	1382.5	1358.18	1332.44	1305.43	1276.72
303.15 K	1461.55	1441.65	1420.51	1398.59	1375.26	1351.21	1325.77	1299.12	1270.73
308.15 K	1455.77	1435.38	1413.75	1391.37	1367.54	1342.97	1317.02	1289.84	1260.96
313.15 K	1447.63	1427.53	1406.26	1384.19	1360.71	1336.5	1310.92	1284.14	1255.65

Clc1ccccc1 [chlorobenzene] + ClCCCl
Conditions	mass density, [1] [kg/m3]	refractive index, [2]	viscosity, [1] [mPa·s]
298.15 K, x2 = 0.1022	1111.56	1.5149	0.7456
298.15 K, x2 = 0.2015	1123.05	1.508	0.7387
298.15 K, x2 = 0.3013	1135.29	1.5012	0.7351
298.15 K, x2 = 0.4039	1148.64	1.4935	0.7364
298.15 K, x2 = 0.4999	1161.91	1.486	0.7372
298.15 K, x2 = 0.5977	1176.36	1.4781	0.741
298.15 K, x2 = 0.6986	1192.24	1.4696	0.7445
298.15 K, x2 = 0.8	1209.3	1.4607	0.7536
298.15 K, x2 = 0.899	1227.12	1.4516	0.7659
303.15 K, x2 = 0.1022	1106.04	1.512	0.7146
303.15 K, x2 = 0.2015	1117.48	1.5052	0.7049
303.15 K, x2 = 0.3013	1129.68	1.4983	0.6991
303.15 K, x2 = 0.4039	1142.96	1.4908	0.6969
303.15 K, x2 = 0.4999	1156.2	1.4832	0.6963
303.15 K, x2 = 0.5977	1170.62	1.4752	0.6973
303.15 K, x2 = 0.6986	1186.46	1.4666	0.6975
303.15 K, x2 = 0.8	1203.48	1.4576	0.7009
303.15 K, x2 = 0.899	1221.28	1.4484	0.71
308.15 K, x2 = 0.1022	1100.15	1.509	0.6659
308.15 K, x2 = 0.2015	1111.22	1.5022	0.6595
308.15 K, x2 = 0.3013	1123.02	1.4951	0.6542
308.15 K, x2 = 0.4039	1135.91	1.4873	0.6505
308.15 K, x2 = 0.4999	1148.68	1.4797	0.6506
308.15 K, x2 = 0.5977	1162.62	1.4715	0.65
308.15 K, x2 = 0.6986	1177.92	1.4626	0.6493
308.15 K, x2 = 0.8	1194.4	1.4534	0.653
308.15 K, x2 = 0.899	1211.62	1.444	0.6574
313.15 K, x2 = 0.1022	1094.68	1.5049	0.619
313.15 K, x2 = 0.2015	1105.79	1.4983	0.6151
313.15 K, x2 = 0.3013	1117.62	1.4915	0.6143
313.15 K, x2 = 0.4039	1130.48	1.4838	0.6119
313.15 K, x2 = 0.4999	1143.37	1.4763	0.6125
313.15 K, x2 = 0.5977	1157.36	1.4682	0.6158
313.15 K, x2 = 0.6986	1172.73	1.4595	0.6191
313.15 K, x2 = 0.8	1189.28	1.4503	0.6241
313.15 K, x2 = 0.899	1206.59	1.441	0.6314
